Twelve molecules from US7834019B2, “Substituted pyrazolo[3,4-d]pyrimidinone derivatives” (Banyu Pharmaceutical Co., Ltd., priority 2006, dated 2010) can be followed below.

For one test, the target named is T1, Weel kinase (Homo sapiens, UniProt P30291).
T1 construct: made in house; host or cells: Sf9 insect cells (recombinant baculovirus)
Description: Weel kinase-inhibitory effect (33P-ATP filter assay with purified GST-tagged Weel kinase). The format is biochemical. The following applies: Poly(Lys,Tyr) substrate, 10 μM ATP, 30° C. for 30 minutes. An excerpt: Pharmaceutical Test 1 (Weel Kinase-Inhibitory Effect)
(1) Purification of Weel Kinase:
A cDNA of Weel kinase with […] (GST) fused at the amino terminal thereof was inserted into a baculovirus expression vector to construct a recombinant baculovirus, with which cells of an insect cell line Sf9 were infected for high expression therein. The infected cells were recovered and solubilized, and then the GST-tagged Weel kinase protein was adsorbed by a glutathione column, and eluted from the column with glutathione, and the active fraction was desalted in a desalting column to give a purified enzyme.
(2) Determination of Weel Kinase Activity:
In determination of the Weel kinase activity, a synthetic peptide, Poly(Lys,Tyr) Hydrobromide (Lys:Tyr (4:1)) bought from Sigma was used as the substrate.
The amount of the reaction mixture was 21.1 μL; and the composition of the reaction buffer was 50 mM Tris-HCl buffer (pH 7.4)/10 mM magnesium chloride/1 mM dithiothreitol. The purified Weel kinase, 2.5 μg of the substrate peptide, 10 μM of non-labeled adenosine triphosphate (ATP) and 1 μCi of [γ-^33P]-labeled ATP (2500 Ci/mmol or more) were added to it, and incubated at 30° C. for 30 minutes. Next, 10 μL of 350 mM phosphate buffer was added to the reaction mixture to stop the reaction. The substrate peptide was adsorbed by a P81 paper filter 96-well plate, then washed a few times with 130 mM phosphate buffer, and its radioactivity was counted with a liquid scintillation counter. The [γ-^33P]-labeled ATP was bought from Amersham Bioscience.
To add the test compound to the reaction system, the compound was diluted with dimethylsulfoxide (DMSO) to prepare a series of dilutions. 1.1 μL of each dilution was added to the reaction system. As a control, 1.1 μL of DMSO was added to the reaction system.

Test [1] has as its system Human colon cancer cells WiDr. Description: Tumor growth-inhibitory effect, WiDr tumor implanted subcutaneously in nude rats. The format is in vivo, F344/N Jcl-mu nude rats. The following applies: gemcitabine 50 mg/kg intravenously alone. As to the method: Pharmaceutical Test 4 (Tumor Growth-Inhibitory Effect)
Human colon cancer cells WiDr (gotten from ATCC) were implanted into the subcutaneous area of the back of F344/N Jcl-mu nude rats. Eight days after the implantation, gemcitabine (50 mg/kg, Gemzar injection, Eli-Lilly) was intravenously administered to them; and after 24 hours, a test compound was dissolved in a solvent (5% glucose) and given to them through continuous intravenous injection for 8 hours. The tumor volume (0.5×(major diameter)×(minor diameter)^2) was determined on day 0, 3, 6, 10 and 13. Day 0 means the day on which gemcitabine was administered. The relative tumor volume is a relative value, as calculated on the basis of the tumor volume of 1 on day 0. The tumor growth percentage (% T/C) was obtained according to the following formula:
When the tumor volume change from day 0 in the group subjected to test compound administration is more than 0 (>0): % T/C=[(tumor volume change in the test compounds on day 3, 6, 10, 13)/(tumor volume change in the control on day 3, 6, 10, 13)]×100. When the tumor volume change from day 0 in the group subjected to test compound administration is less than 0 (<0): % T/C=[(tumor volume change in the test compounds on day 3, 6, 10, 13)/(tumor volume […])]×100.

Structures are written as SMILES.

T1 sequence (P30291 whole entry): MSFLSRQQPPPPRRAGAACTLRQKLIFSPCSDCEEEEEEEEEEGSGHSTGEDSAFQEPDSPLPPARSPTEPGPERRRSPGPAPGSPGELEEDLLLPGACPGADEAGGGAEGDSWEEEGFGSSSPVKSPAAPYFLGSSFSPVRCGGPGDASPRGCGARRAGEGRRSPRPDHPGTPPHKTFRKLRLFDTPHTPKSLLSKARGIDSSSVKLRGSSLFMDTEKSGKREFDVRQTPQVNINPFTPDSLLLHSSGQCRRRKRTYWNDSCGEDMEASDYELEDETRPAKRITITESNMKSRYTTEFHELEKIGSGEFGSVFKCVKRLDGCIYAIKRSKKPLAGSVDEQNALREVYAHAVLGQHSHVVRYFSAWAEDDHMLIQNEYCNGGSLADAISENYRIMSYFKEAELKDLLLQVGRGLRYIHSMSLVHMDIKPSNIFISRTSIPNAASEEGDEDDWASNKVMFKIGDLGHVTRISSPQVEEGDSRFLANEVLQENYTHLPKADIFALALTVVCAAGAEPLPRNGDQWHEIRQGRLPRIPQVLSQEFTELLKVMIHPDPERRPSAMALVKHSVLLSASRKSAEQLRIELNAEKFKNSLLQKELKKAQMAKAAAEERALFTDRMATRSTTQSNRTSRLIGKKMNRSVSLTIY

In general, IC50 refers to the concentration at which inhibition is half-maximal. Higher therefore signals weaker potency. `C=CCn1c(=O)c2cnc(Nc3ccc(N4CCN(C)CC4)cc3)nc2n1-c1cccc(C(=O)N(C)C)c1` [Example 1, 3-(2-allyl-6-{[4-(4-methylpiperazin-1-yl)phenyl]amino}-3-oxo-1,2-dihydro-3H-pyrazolo[3,4-d]pyrimidin-1-yl)-N,N-dimethylbenzamide]: the IC50 on Weel kinase was 7 nM.

On Weel kinase, `C=CCn1c(=O)c2cnc(Nc3ccc(N4CCN(C)CC4)c(CO)c3)nc2n1-c1ccsc1` [Example 3, 2-allyl-6-{[3-(hydroxymethyl)-4-(4-methylpiperazin-1-yl)phenyl]amino}-1-(3-thienyl)-1,2-dihydro-3H-pyrazolo[3,4-d]pyrimidin-3-one] gave an IC50 of 7.6 nM.

Regarding `C=CCn1c(=O)c2cnc(Nc3ccc(N4CCN(C)CC4)cc3)nc2n1-c1cccc(CN(C)C)c1` [Example 26, 2-allyl-1-[3-(dimethylaminomethyl)phenyl]-6-{[4-(4-methylpiperazin-1-yl)phenyl]amino}-1,2-dihydro-3H-pyrazolo[3,4-d]pyrimidin-3-one], on Weel kinase, half-maximal inhibition (IC50) required 18 nM.

`C=CCn1c(=O)c2cnc(Nc3ccc(N4CCN(C)CC4)c(CO)c3)nc2n1-c1ccccn1` [Example 29, 2-allyl-6-{[3-hydroxymethyl-4-(4-methylpiperazin-1-yl)phenyl]amino}-1-pyridin-2-yl-1,2-dihydro-3H-pyrazolo[3,4-d]pyrimidin-3-one]: half-maximal inhibition on Weel kinase (IC50) required 20 nM.

Consider `C=CCn1c(=O)c2cnc(Nc3ccc(N4CCN(C)CC4)c(C)c3)nc2n1-c1cccc(CN(C)C)n1` [Example 52, 2-allyl-1-[6-[(dimethylamino)methyl]pyridin-2-yl]-6-{[3-methyl-4-(4-methylpiperazin-1-yl)phenyl]amino}-1,2-dihydro-3H-pyrazolo[3,4-d]pyrimidin-3-one], for which, at Weel kinase, it took 12 nM to reach half-maximal inhibition (IC50).

At Weel kinase, `C=CCn1c(=O)c2cnc(Nc3ccc(N4CCN(C)CC4)c(C)c3)nc2n1-c1cccc(OCCO)n1` [Example 98, 2-allyl-1-[6-(2-hydroxyethoxy)pyridin-2-yl]-6-{[3-methyl-4-(4-methylpiperazin-1-yl)phenyl]amino}-1,2-dihydro-3H-pyrazolo[3,4-d]pyrimidin-3-one] came in with an IC50 of 14 nM.

In turn, `C=CCn1c(=O)c2cnc(Nc3ccc(N4CCN(C)CC4)cc3)nc2n1-c1cccc(CN(C)S(C)(=O)=O)n1` [Example 99, N-{[6-(2-allyl-6-{[4-(4-methylpiperazin-1-yl)phenyl]amino}-3-oxo-1,2-dihydro-3H-pyrazolo[3,4-d]pyrimidin-1-yl)pyridin-2-yl]methyl}-N-methylmethanesulfonamide] registered an IC50 on Weel kinase of 8.8 nM.

At Weel kinase, `Cc1cc(Nc2ncc3c(=O)n(Cc4ccccc4)n(-c4ccccc4)c3n2)ccc1N1CCN(C)CC1` [Example 111, 2-benzyl-6-{[3-methyl-4-(4-methylpiperazin-1-yl)phenyl]amino}-1-phenyl-1,2-dihydro-3H-pyrazolo[3,4-d]pyrimidin-3-one] returned an IC50 of 24 nM.

Turning to `C#CCn1c(=O)c2cnc(Nc3ccc(N4CCN(C)CC4)cc3)nc2n1-c1cccc(C(C)(C)O)n1` [Example 113, 1-[6-(1-hydroxy-1-methylethyl)pyridin-2-yl]-6-{[4-(4-methylpiperazin-1-yl)phenyl]amino}-2-(2-propynyl)-1,2-dihydro-3H-pyrazolo[3,4-d]pyrimidin-3-one], the IC50 against Weel kinase came to 6.3 nM.

`CC(C)n1c(=O)c2cnc(Nc3ccc(C4CCN(C)CC4)cc3)nc2n1-c1cccc(C(C)(C)O)n1` [Example 147, 1-[6-(1-hydroxy-1-methylethyl)pyridin-2-yl]-2-isopropyl-6-{[4-(1-methylpiperidin-4-yl)phenyl]amino}-1,2-dihydro-3H-pyrazolo[3,4-d]pyrimidin-3-one] registered an IC50 against Weel kinase of 24 nM.

As for `C=CCn1c(=O)c2cnc(Nc3ccc(N4CCN(C)CC4)cc3)nc2n1-c1cccc(N2CCN(C)C2=O)n1` [Example 148, 2-allyl-1-[6-(3-methyl-2-oxoimidazolidin-1-yl)pyridin-2-yl]-6-{[4-(4-methylpiperazin-1-yl)phenyl]amino}-1,2-dihydro-3H-pyrazolo[3,4-d]pyrimidin-3-one], the IC50 against Weel kinase worked out at 17 nM.

Turning to `Nc1ccn([C@@H]2O[C@H](CO)[C@@H](O)C2(F)F)c(=O)n1` [Gemcitabine, gemcitabine, reference compound], the “% T/C day 3” value in test [1] (day 3) came out at 22%. For the same molecule, the “% T/C day 6” value in test [1] (day 6) was 31%. Moreover, the “% T/C day 10” value in test [1] (day 10) turned out to be 54%. Besides, the “% T/C day 13” value in test [1] (day 13) amounted to 65%.
